Assay results published in PMC4939875 (Nature, 2016).

Columns and labels:
TONSL ARD = test: GST-histone tail pull-down with recombinant TONSL ARD; assay type: binding, human; settings: GST-H3 tail (1–59), GST-H4 tail (1–31); 20 mM Tris pH 7.5, 0.5 M NaCl; SDS-PAGE
[1] = system: TONSL acidic stretch and ARD (a.a. 450-692); test: ITC of TONSL acidic stretch and ARD; assay type: binding, human; settings: TONSL a.a. 450-692, H3K9me1 (a.a. 1-21), 20 mM Tris pH 7.5, 0.5 M NaCl

Row | binding of TONSL ARD to GST-histone tail (TONSL ARD) | Substance | interaction between TONSL ARD with acidic stretch and H3K9me1 peptide [1]
1 | binds | GST-H4 tail: GST-tagged human histone H4 fragment 1–31 | 
2 |  | H3K9me1: peptide of H3(1-21)K9me1 (mono-methylation on Lys9) | unable to detect an interaction
